Article PMC8037569, “Neuroprotective Effect of Aurantio-Obtusin, a Putative Vasopressin V1A Receptor Antagonist, on Transient Forebrain Ischemia Mice Model” (International Journal of Molecular Sciences, 2021)
Read-outs that look alike come from different tables or passages of the source.

What was measured:
dopamine receptors = tested on: dopamine receptors; design: method as in PMID 32280914; details: at the tested concentrations; cited from earlier work
vasopressin receptors = tested on: vasopressin receptors; design: method as in PMID 32280914; details: at the tested concentrations; cited from earlier work
hV1AR = biological target: T1, hV1AR (Homo sapiens, UniProt P37288); assay: GPCR functional assay: intracellular Ca2+ mobilization in transfected CHO cells; assay type: cell-based; details: for % Stimulation (agonist effect) of control agonist response, V1A (h): control response to 1 μM AVP
T1 construct: host or cells: CHO
T1 sequence (P37288 whole entry): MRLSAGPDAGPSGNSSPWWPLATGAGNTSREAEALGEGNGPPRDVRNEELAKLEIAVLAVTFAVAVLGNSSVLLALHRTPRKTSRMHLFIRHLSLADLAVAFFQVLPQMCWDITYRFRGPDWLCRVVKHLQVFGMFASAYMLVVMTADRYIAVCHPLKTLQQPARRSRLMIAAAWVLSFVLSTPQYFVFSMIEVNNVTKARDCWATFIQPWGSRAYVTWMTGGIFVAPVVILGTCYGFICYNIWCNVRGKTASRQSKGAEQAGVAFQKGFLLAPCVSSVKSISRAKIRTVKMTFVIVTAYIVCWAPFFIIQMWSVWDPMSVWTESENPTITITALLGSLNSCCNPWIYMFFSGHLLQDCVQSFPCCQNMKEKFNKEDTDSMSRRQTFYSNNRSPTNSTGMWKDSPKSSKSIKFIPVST

h5-HT1AR = biological target: T2, h5-HT1AR (Homo sapiens, UniProt P08908); assay: GPCR functional assay: intracellular Ca2+ mobilization in Ba/F3 cells; assay type: cell-based; details: for % Inhibition (antagonist effect) of control agonist response, 5-HT1A (h) / % Stimulation (agonist effect) of control agonist response, 5-HT1A (h): 100 µM test compound; for % Inhibition (antagonist effect) of control agonist response, 5-HT1A (h): control response to 30 nM serotonin; for % Stimulation (agonist effect) of control agonist response, 5-HT1A (h): control response to serotonin (2.5 μM); for inhibition at 100 µM: BaF3, read-out: % Inhibition (antagonist effect) of control agonist response, 5-HT1A (h)
T2 construct: host or cells: Ba/F3 (murine pro-B)
T2 sequence (P08908 1-422): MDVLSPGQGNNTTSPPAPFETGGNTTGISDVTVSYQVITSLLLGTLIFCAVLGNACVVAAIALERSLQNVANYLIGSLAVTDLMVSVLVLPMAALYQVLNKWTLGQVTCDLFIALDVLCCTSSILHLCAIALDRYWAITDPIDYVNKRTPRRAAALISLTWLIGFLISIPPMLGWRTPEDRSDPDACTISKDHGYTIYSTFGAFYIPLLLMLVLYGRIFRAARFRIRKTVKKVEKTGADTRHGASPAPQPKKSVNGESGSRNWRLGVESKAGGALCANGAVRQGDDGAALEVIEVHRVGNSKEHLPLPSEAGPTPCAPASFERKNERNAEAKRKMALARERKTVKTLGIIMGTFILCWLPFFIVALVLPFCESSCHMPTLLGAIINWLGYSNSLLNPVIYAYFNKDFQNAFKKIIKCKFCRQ

hD3 receptor = biological target: T3, hD3 receptor (Homo sapiens, UniProt P35462); assay: GPCR functional assay: cAMP modulation by HTRF in transfected CHO cells; assay type: cell-based; details: for % Stimulation (agonist effect) of control agonist response, D3 (h): 100 µM test compound, control response to 300 nM dopamine; for inhibition at 100 µM: CHO, read-out: % Inhibition (antagonist effect) of control agonist response, D3 (h)
T3 construct: host or cells: CHO
T3 sequence (P35462 whole entry): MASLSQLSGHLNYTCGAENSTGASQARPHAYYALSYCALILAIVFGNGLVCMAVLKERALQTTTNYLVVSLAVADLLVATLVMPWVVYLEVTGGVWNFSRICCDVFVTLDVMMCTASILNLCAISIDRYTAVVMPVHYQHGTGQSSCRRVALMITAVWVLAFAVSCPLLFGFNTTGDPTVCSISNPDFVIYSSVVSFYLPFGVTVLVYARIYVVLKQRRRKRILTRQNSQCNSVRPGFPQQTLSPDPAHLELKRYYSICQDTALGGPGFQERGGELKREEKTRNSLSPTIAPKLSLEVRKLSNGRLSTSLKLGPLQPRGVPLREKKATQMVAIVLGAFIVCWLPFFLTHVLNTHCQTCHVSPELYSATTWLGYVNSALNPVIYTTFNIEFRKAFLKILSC

hNK1R = biological target: T4, hNK1R (Homo sapiens, UniProt P25103); assay: GPCR functional assay: intracellular Ca2+ mobilization in U373MG cells; assay type: cell-based; details: for % Inhibition (antagonist effect) of control agonist response, NK1 (h) / % Stimulation (agonist effect) of control agonist response, NK1 (h): 100 µM test compound; for % Inhibition (antagonist effect) of control agonist response, NK1 (h): control response to 1 nM [Sar9, Met(O2)11]-SP; for % Stimulation (agonist effect) of control agonist response, NK1 (h): control response to 30 nM [Sar9, Met(O2)11]-SP; for inhibition at 100 µM: U373 MG, read-out: % Inhibition (antagonist effect) of control agonist response, NK1 (h)
T4 construct: Human endogenous (U373MG cells); host or cells: U373MG
T4 sequence (P25103 whole entry): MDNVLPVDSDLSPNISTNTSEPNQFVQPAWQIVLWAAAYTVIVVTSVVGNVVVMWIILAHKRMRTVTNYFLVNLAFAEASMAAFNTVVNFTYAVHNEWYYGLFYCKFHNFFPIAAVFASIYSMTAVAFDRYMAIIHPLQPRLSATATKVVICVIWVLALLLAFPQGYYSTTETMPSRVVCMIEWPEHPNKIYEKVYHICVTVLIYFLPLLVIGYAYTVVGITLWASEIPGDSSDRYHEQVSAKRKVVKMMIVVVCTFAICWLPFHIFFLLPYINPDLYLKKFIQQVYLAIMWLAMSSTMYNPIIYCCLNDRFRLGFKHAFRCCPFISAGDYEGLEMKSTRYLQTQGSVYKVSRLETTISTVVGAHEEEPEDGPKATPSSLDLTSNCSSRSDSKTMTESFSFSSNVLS

[1] = biological target: angiotensin-converting enzyme (ACE); design: method as in PMID 18803227; details: read-out: Inhibition of ACE activity, IC50; cited from earlier work
[2] = 100 µM test compound, control response to 10 nM AVP
[3] = CHO, read-out: % Inhibition (antagonist effect) of control agonist response, V1A (h)

Compound: Cc1cc2c(c(O)c1O)C(=O)c1c(O)cc(O)cc1C2=O [7-hydroxyemodin]
- Activity on dopamine receptors (dopamine receptors): showed activity
- Activity on vasopressin receptors (vasopressin receptors): showed activity

Compound: COc1c(O)c(C)cc2c1C(=O)c1c(O)cc(O)cc1C2=O [2-Hydroxyemodin 1-methylether]
- inhibition at 12.5 µM (hV1AR; CHO, 12.5 µM, control response to 10 nM AVP, read-out: V1AR antagonist effect, % inhibition): 23.1%
- inhibition at 25 µM (hV1AR; CHO, 25 µM, control response to 10 nM AVP, read-out: V1AR antagonist effect, % inhibition): 26.5%
- inhibition at 50 µM (hV1AR; CHO, 50 µM, control response to 10 nM AVP, read-out: V1AR antagonist effect, % inhibition): 36.6%
- inhibition at 100 µM (hV1AR; CHO, 100 µM test compound, control response to 10 nM AVP, read-out: % Inhibition (antagonist effect) of control agonist response, V1A (h) (converted)): 42.3%

Compound: COc1cc(O)cc2c1C(=O)c1c(O)cc(C)cc1C2=O [questin]
- Activity on dopamine receptors (dopamine receptors): remained inactive
- Activity on vasopressin receptors (vasopressin receptors): remained inactive

Compound: COc1cc(OC2OC(COC3OC(CO)C(O)C(O)C3O)C(O)C(O)C2O)c2c(O)c3c(=O)cc(C)oc3cc2c1 (stereo not drawn) [Rubrofusarin Gentiobioside, Rubrofusarin 6-O-β-gentiobioside]
- % Inhibition (antagonist effect) of control agonist response, V1A (h) (hV1AR; [2]): negligible
- % Stimulation (agonist effect) of control agonist response, V1A (h) (hV1AR; 100 µM test compound): −4.40 ± 1.41%
- inhibition at 100 µM (hV1AR; [3]): -13.6%
- % Inhibition (antagonist effect) of control agonist response, 5-HT1A (h) (h5-HT1AR): negligible
- % Stimulation (agonist effect) of control agonist response, 5-HT1A (h) (h5-HT1AR): −0.30 ± 0.28%
- inhibition at 100 µM (h5-HT1AR): 4.25%
- % Stimulation (agonist effect) of control agonist response, D3 (h) (hD3 receptor): 7.05 ± 1.63%
- inhibition at 100 µM (hD3 receptor): -0.05%
- % Inhibition (antagonist effect) of control agonist response, NK1 (h) (hNK1R): negligible
- % Stimulation (agonist effect) of control agonist response, NK1 (h) (hNK1R): −1.40 ± 0.42%
- inhibition at 100 µM (hNK1R): 3.9%

Compound: FC(F)(F)c1cc(CO[C@H]2CCCN[C@H]2c2ccccc2)cc(C(F)(F)F)c1 [L 733,060, reference compound]
- IC50 (hNK1R; standard antagonist, read-out: Antagonist effect IC50, NK1 (h)): 0.00058 µM

Compound: COc1c(O[C@@H]2O[C@H](CO)[C@@H](O)[C@H](O)[C@H]2O)cc2c(c1O)C(=O)c1c(cc(C)c(O)c1OC)C2=O [gluco-aurantio-obtusin]
- IC50 [1]: 30.24 ± 0.2 µM

Compound: O=C1c2cccc(O)c2C(=O)c2c(O)cc(CO)cc21 [aloe-emodin]
- Activity on dopamine receptors (dopamine receptors): remained inactive
- Activity on vasopressin receptors (vasopressin receptors): remained inactive

Compound: Cc1cc(O)c2c(c1)C(=O)c1cc(O)cc(O)c1C2=O [emodin]
- Activity on dopamine receptors (dopamine receptors): showed activity
- Activity on vasopressin receptors (vasopressin receptors): showed activity

Compound: Cc1cc(=O)c2c(O)c3c(OC4OC(CO)C(O)C(O)C4O)cc(O)cc3cc2o1 (stereo not drawn) [Cassiaside]
- % Inhibition (antagonist effect) of control agonist response, V1A (h) (hV1AR; [2]): negligible
- % Stimulation (agonist effect) of control agonist response, V1A (h) (hV1AR; 100 µM test compound): 1.40 ± 2.83%
- inhibition at 100 µM (hV1AR; [3]): -9.9%
- % Inhibition (antagonist effect) of control agonist response, 5-HT1A (h) (h5-HT1AR): negligible
- % Stimulation (agonist effect) of control agonist response, 5-HT1A (h) (h5-HT1AR): 1.75 ± 0.07%
- inhibition at 100 µM (h5-HT1AR): -13.4%
- % Stimulation (agonist effect) of control agonist response, D3 (h) (hD3 receptor): 14.75 ± 1.20%
- inhibition at 100 µM (hD3 receptor): -5.05%
- % Inhibition (antagonist effect) of control agonist response, NK1 (h) (hNK1R): negligible
- % Stimulation (agonist effect) of control agonist response, NK1 (h) (hNK1R): −1.70 ± 0.14%
- inhibition at 100 µM (hNK1R): 20.5%
